What was measured:
A2B5+ OPCs = assay: OPC differentiation assay; type: cell-based, Sprague Dawley rats; conditions: 72 h; rat OPCs in CNTF/T3 media, 3-day incubation, MSD analysis; read-out: positive in the OPC assay (concentration)
Experimental: OPC Differentiation Assay
Enriched populations of oligodendrocytes were grown from post-natal day 2 (P2) female Sprague Dawley rats. The forebrain was dissected out and placed in Hank's buffered saline solution (HBSS; Invitrogen, Grand Island, N.Y.). The tissue was cut into 1 mm fragments and incubated at 37° C. for 15 minutes in 0.01% trypsin and 10 μg/mL DNase. Dissociated cells were plated on poly-L-lysine-coated T75 tissue culture flasks and grown at 37° C. for 10 days in Dulbecco's modified Eagle's medium (DMEM) with 20% fetal calf serum (Invitrogen). A2B5^+ OPCs were collected by shaking the flask overnight at 200 rpm and 37° C., resulting in a 95% pure population.
For the differentiation assay, 2 μM and 20 μM antagonist or the same concentrations of vehicle (DMSO) were applied to OPCs cultured in CNTF/T3 containing media. After a 3-day incubation, after a 3-day incubation, cell were lysed and then subjected to MSD (Meso Scale Discovery-R) analysis. EC50 was calculated by Prism using a nonlinear sigmoidal dose-response curve cells. Alternatively, cells were lysed in 80 μL lysis buffer (50 mM HEPES [4-(2-hydroxyethyl)-1-piperazine ethanesulfonic acid], pH 7.5, 150 mM NaCl, 1.5 mM MgCl2, 1 mM ethylene glycol tetraacetic acid [EGTA], 1% Triton X-100 and 10% glycerol) for 30 minutes at 4° C. After centrifugation at 14,000 g for 15 minutes, the supernatants were boiled in Laemmli sample buffer, subjected to 4-20% SDS-PAGE, and analyzed by Western blotting with anti-MBP, anti-myelin-associated glycoprotein (MAG), or anti-beta actin antibodies. The secondary antibodies used were anti-mouse IgG-HRP (horseradish peroxidase) and anti-rabbit IgG-HRP respectively.

S1P4 = target: T1, S1P4 (Homo sapiens, UniProt O95977); assay: S1P receptor calcium flux assay, agonist format (S1P4); type: cell-based; conditions: FLIPR TETRA
T1 sequence (O95977 1-384): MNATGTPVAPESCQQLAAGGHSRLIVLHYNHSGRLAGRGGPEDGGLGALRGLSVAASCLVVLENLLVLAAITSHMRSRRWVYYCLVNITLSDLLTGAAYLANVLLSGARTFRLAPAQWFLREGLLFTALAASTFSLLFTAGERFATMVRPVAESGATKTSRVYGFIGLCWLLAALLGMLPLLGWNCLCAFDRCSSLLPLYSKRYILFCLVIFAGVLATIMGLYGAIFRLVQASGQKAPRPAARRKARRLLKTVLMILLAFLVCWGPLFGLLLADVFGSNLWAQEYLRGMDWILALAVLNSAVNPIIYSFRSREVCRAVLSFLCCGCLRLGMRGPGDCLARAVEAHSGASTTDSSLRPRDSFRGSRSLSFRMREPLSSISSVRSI
Source text: (§1) S1P Receptor Activity Assays Agonist percentage activation determinations were obtained by assaying sample compounds and referencing the Emax control for each receptor profiled. Antagonist percentage inhibition determinations were obtained by assaying sample compounds and referencing the control EC80 wells for each receptor profiled. The samples were run using a “Single Addition” assay protocol for the agonist and antagonist assay run. The protocol design was as follows: Compound Preparation Master stock solution: Unless specified otherwise, all sample compounds were diluted in 100% anhydrous DMSO including all serial dilutions. All control wells contained identical solvent final concentrations as did the sample compound wells. Compound plate for assay: The sample compounds were transferred from a master stock solution into a daughter plate that was used in the assay. Each sample compound was diluted into assay buffer (1×HBSS with 20 mM HEPES and 2.5 mM Probenecid) at an appropriate concentration to obtain final concentrations. […] Assay was read for 180 seconds using the FLIPR^TETRA (This assay run added sample compounds and reference agonist to respective wells). […] Once baseline corrections were processed, maximum fluorescence values were exported and data manipulated to calculate percentage activation, percentage inhibition and Z′.

S1P3 = S1P3 (Homo sapiens, UniProt Q99500); assay: S1P receptor calcium flux assay, agonist format (S1P3); type: cell-based; conditions: FLIPR TETRA
Source text: as §1

Chain of S1P3 (Q99500 whole entry): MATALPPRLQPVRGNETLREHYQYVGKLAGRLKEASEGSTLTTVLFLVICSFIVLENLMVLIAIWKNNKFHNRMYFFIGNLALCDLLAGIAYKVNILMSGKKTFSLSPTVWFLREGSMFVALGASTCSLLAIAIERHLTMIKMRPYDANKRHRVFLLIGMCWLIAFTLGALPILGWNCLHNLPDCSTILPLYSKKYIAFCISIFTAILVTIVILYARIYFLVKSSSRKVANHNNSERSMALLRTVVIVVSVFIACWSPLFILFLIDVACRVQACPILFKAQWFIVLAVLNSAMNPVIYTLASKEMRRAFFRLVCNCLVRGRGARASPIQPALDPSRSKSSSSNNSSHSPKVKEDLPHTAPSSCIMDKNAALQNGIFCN

Row | SMILES | minimal effective concentration (A2B5+ OPCs) | also measured
1 | CC(C)(C)[C@H]1CC[C@H](Oc2cccc(-c3cccc(CNCCC(=O)O)c3)c2)CC1 [Example 4, 3-(((3′-((trans-4-(tert-Butyl)cyclohexyl)oxy)-[1,1′-biphenyl]-3-yl)methyl)amino)propanoic acid] | 0.5 to 5 µM | –
2 | CC(C)(C)[C@H]1CC[C@H](Oc2ccc(-c3cccc(CNC4CC(C(=O)O)C4)c3)cc2)CC1 (stereo partly drawn) [Example 10, 3-(((4′-((trans-4-(tert-Butyl)cyclohexyl)oxy)-[1,1′-biphenyl]-3-yl)methyl)amino)cyclobutanecarboxylic acid] | 0.5 to 5 µM | –
3 | CC(C)(C)[C@H]1CC[C@H](Oc2ccc(-c3ccc(CNCCC(=O)O)cc3)cc2)CC1 [Example 24, 3-((4′-(trans-4-tert-Butylcyclohexyloxy)biphenyl-4-yl)methylamino)propanoic acid] | 0.5 to 5 µM | –
4 | CC(C)(C)[C@H]1CC[C@H](n2nc(-c3cccc(CNCCC(=O)O)c3)ccc2=O)CC1 [Example 48, 3-((3-(1-(trans-4-(tert-butyl)cyclohexyl)-6-oxo-1,6-dihydropyridazin-3-yl)benzyl)amino)propanoic acid] | – | S1P4 agonist activity EC50 (S1P4): 0.001 to 5 µM
5 | CC(C)(C)[C@H]1CC[C@H](Oc2cnc(-c3cccc(CNCCC(=O)O)c3)nc2)CC1 [Example 50, 3-(3-(5-(trans-4-tert-Butylcyclohexyloxy)pyrimidin-2-yl)benzylamino)propanoic acid] | – | EC50 (S1P3): 0.05 to 5 µM
6 | CC(C)(C)[C@H]1CC[C@H](Oc2ccc(-c3csc(CNCCC(=O)O)n3)cc2)CC1 [Example 62, 3-(((4-(4-((trans-4-(tert-Butyl)cyclohexyl)oxy)phenyl)thiazol-2-yl)methyl)amino)propanoic acid] | 0.5 to 5 µM | –
7 | CC(C)(C)[C@H]1CC[C@H](Oc2ccc(-n3cc(CN4CCC(C(=O)O)CC4)nn3)cc2)CC1 [Example 93, 1-((1-(4-(trans-4-tert-Butylcyclohexyloxy)phenyl)-1H-1,2,3-triazol-4-yl)methyl)piperidine-4-carboxylic acid] | 0.5 to 5 µM | –
8 | CC(C)(C)[C@H]1CC[C@H](Oc2ccc(-c3cccc(CNCCC(=O)O)c3F)cc2)CC1 [Example 95] | 0.5 to 5 µM | –
9 | O=C(O)C1CCN(Cc2cccc(-c3ccc(OC4CCC5(CCC5)CC4)cc3)c2F)C1 (centres unmarked) [Example 106, 1-((2-fluoro-4′-(spiro[3.5]nonan-7-yloxy)-[1,1′-biphenyl]-3-yl)methyl)pyrrolidine-3-carboxylic acid] | 0.5 to 5 µM | –
10 | O=C(O)C1CCN(Cc2cccc(-c3ccc(OC4CCC5(CCCC5)CC4)cc3)c2F)C1 (centres unmarked) [Example 114, 1-((2-fluoro-4′-(spiro[4.5]decan-8-yloxy)-[1,1′-biphenyl]-3-yl)methyl)pyrrolidine-3-carboxylic acid] | 0.5 to 5 µM | –
11 | O=C(O)C1CCCN(Cc2cccc(-c3ccc(OC4CCC5(CCCC5)CC4)cc3)c2F)C1 (centres unmarked) [Example 115, 1-((2-fluoro-4′-(spiro[4.5]decan-8-yloxy)-[1,1′-biphenyl]-3-yl)methyl)piperidine-3-carboxylic acid] | 0.5 to 5 µM | –
12 | CC(C)[C@H]1CC[C@H](Oc2ccc(-c3cccc(CN4CCC(C(=O)O)C4)c3F)cc2)CC1 (some centres unmarked) [Example 138, 1-((2-fluoro-4′-(((1r,4r)-4-isopropylcyclohexyl)oxy)-[1,1′-biphenyl]-3-yl)methyl)pyrrolidine-3-carboxylic acid] | 0.5 to 5 µM | –
13 | CC(C)[C@H]1CC[C@H](Oc2ccc(-c3cccc(CN4CCCC(C(=O)O)C4)c3F)cc2)CC1 (some centres unmarked) [Example 139, 1-((2-fluoro-4′-(((1r,4r)-4-isopropylcyclohexyl)oxy)-[1,1′-biphenyl]-3-yl)methyl)piperidine-3-carboxylic acid] | 0.5 to 5 µM | –
14 | CC(C)[C@H]1CC[C@H](Oc2ccc(-c3cccc(CN4CCC(C(=O)O)CC4)c3F)cc2)CC1 [Example 140, 1-((2-fluoro-4′-(((1r,4r)-4-isopropylcyclohexyl)oxy)-[1,1′-biphenyl]-3-yl)methyl)piperidine-4-carboxylic acid] | 0.5 to 5 µM | –

From US9771326B2, “S1P and/or ATX modulating agents” (BIOGEN MA INC., priority 2012, dated 2017)
